Assay results reported in PubChem BioAssay AID248 (DTP/NCI, 2004).
Where “and” joins values, the source holds several entries; their conditions need not be identical. Equal entries are not always repeated. Toxic doses and inconclusive results are not listed. No stated cut-off is given here; in the data, active means T/C of 150% or more; inactive means T/C below 125%.

System: L1210 leukemia ip in BDF1 mice, survival T/C
Assay: NCI In Vivo Anticancer Drug Screen. Data for tumor model L1210 Leukemia (intraperitoneal) in B6D2F1 (BDF1) mice
Conditions: endpoint: mean survival time, higher = longer survival
Procedure, shortened: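 Ratio derived from survival: compound-dosed mice over vehicle-dosed mice, all bearing a transplantable tumor.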

[1] = dose: 100.0 mg/kg/injection, schedule: Q01DX009 (ip), vehicle: saline with Tween-80
[2] = dose: 200.0 mg/kg/injection, schedule: Q01DX009 (ip), vehicle: saline with Tween-80
[3] = dose: 400.0 mg/kg/injection, schedule: Q01DX009 (ip), vehicle: saline with Tween-80
[4] = dose: 100.0 mg/kg/injection, schedule: Q01DX001 (ip), vehicle: saline
[5] = dose: 200.0 mg/kg/injection, schedule: Q01DX001 (ip), vehicle: saline
[6] = dose: 100.0 mg/kg/injection, schedule: Q04DX002 (ip), vehicle: Klucel (hydroxypropylcellulose) (HPC)
[7] = dose: 200.0 mg/kg/injection, schedule: Q04DX002 (ip), vehicle: Klucel (hydroxypropylcellulose) (HPC)
[8] = dose: 400.0 mg/kg/injection, schedule: Q04DX002 (ip), vehicle: Klucel (hydroxypropylcellulose) (HPC)
[9] = dose: 100.0 mg/kg/injection, schedule: Q04DX002 (ip), vehicle: saline
[10] = dose: 200.0 mg/kg/injection, schedule: Q04DX002 (ip), vehicle: saline
[11] = dose: 400.0 mg/kg/injection, schedule: Q04DX002 (ip), vehicle: saline
[12] = dose: 100.0 mg/kg/injection, schedule: Q04DX003 (ip), vehicle: saline
[13] = dose: 200.0 mg/kg/injection, schedule: Q04DX003 (ip), vehicle: saline
[14] = dose: 50.0 mg/kg/injection, schedule: Q01DX009 (ip), vehicle: saline
[15] = dose: 100.0 mg/kg/injection, schedule: Q01DX009 (ip), vehicle: other
[16] = dose: 200.0 mg/kg/injection, schedule: Q01DX009 (ip), vehicle: other
[17] = dose: 400.0 mg/kg/injection, schedule: Q01DX009 (ip), vehicle: other
[18] = dose: 200.0 mg/kg/injection, schedule: Q04DX003 (ip), vehicle: saline with Tween-80
[19] = dose: 400.0 mg/kg/injection, schedule: Q04DX003 (ip), vehicle: saline with Tween-80

Measured: T/C

COc1ccc(C(O)(c2ccccc2)C(O)c2ccccc2)cc1 (configuration not stated)
inactive: [1] 98 % of control | [2] 88 % of control | [3] 86 % of control

C=CC(N)=O (tested in a mixture with another compound)
inactive: [4] 99 % of control | [5] 99 % of control | dose: 400.0 mg/kg/injection, schedule: Q01DX001 (ip), vehicle: saline 89 % of control

COC(=O)CCC(OC(C)=O)C(=O)c1ccccc1 (configuration not stated)
inactive: dose: 50.0 mg/kg/injection, schedule: Q01DX009 (ip), vehicle: saline with Tween-80 91 % of control | [1] 94 % of control | [2] 88 % of control

CC(=O)OC(C)C(=O)C1=C2CCCN2CCc2cc3c(cc21)OCO3 (configuration not stated)
inactive: [6] 103 % of control | [7] 103 % of control | [8] 103 % of control

O=C1CCC(N2C(=O)C3C4CCC(O4)C3C2=O)C(=O)O1 (configuration not stated)
inactive: [9] 102 % of control | [10] 94 % of control | [11] 91 % of control

COc1cc2c(cc1OC)/C(=N\O)CCCC2
inactive: dose: 100.0 mg/kg/injection, schedule: Q01DX009 (ip), vehicle: saline sonified 97 % of control | dose: 100.0 mg/kg/injection, schedule: Q04DX003 (ip), vehicle: Klucel (hydroxypropylcellulose) (HPC) 96 % of control | dose: 200.0 mg/kg/injection, schedule: Q01DX009 (ip), vehicle: saline sonified 94 % of control | dose: 200.0 mg/kg/injection, schedule: Q04DX003 (ip), vehicle: Klucel (hydroxypropylcellulose) (HPC) 94 % of control | dose: 400.0 mg/kg/injection, schedule: Q01DX009 (ip), vehicle: saline sonified 100 % of control | dose: 400.0 mg/kg/injection, schedule: Q04DX003 (ip), vehicle: Klucel (hydroxypropylcellulose) (HPC) 97 % of control

O=C1CCC(N2C(=O)C3CCCCC3C2=O)C(=O)N1 (configuration not stated)
inactive: [12] 97 % of control | [13] 93 % of control | dose: 400.0 mg/kg/injection, schedule: Q04DX003 (ip), vehicle: saline 101 % of control

Cc1cc(N2CCC(N3CCCC3)CC2)nc(/N=C(\N)Nc2ccc(Cl)c(Cl)c2)n1
inactive: dose: 12.0 mg/kg/injection, schedule: Q01DX009 (ip), vehicle: saline 97 % of control | dose: 25.0 mg/kg/injection, schedule: Q01DX009 (ip), vehicle: saline 106 % of control | [14] 98 % of control

COc1ccc(OC(=O)Nc2cccc(C(C)=O)c2)cc1
inactive: [15] 106 % of control | [16] 89 % of control | [17] 101 % of control

O=S1(=O)CN2C=CC=CC2=N1
inactive: dose: 100.0 mg/kg/injection, schedule: Q04DX002 (ip), vehicle: saline with Tween-80 113 % of control | dose: 200.0 mg/kg/injection, schedule: Q04DX002 (ip), vehicle: saline with Tween-80 91 % of control | dose: 400.0 mg/kg/injection, schedule: Q04DX002 (ip), vehicle: saline with Tween-80 109 % of control

CC(=O)c1c(C)c(Cl)c(C)c(Cl)c1O
inactive: dose: 100.0 mg/kg/injection, schedule: Q01DX009 (ip), vehicle: Klucel (hydroxypropylcellulose) (HPC) 101 % of control | [6] 103 % of control and 107 % of control | dose: 200.0 mg/kg/injection, schedule: Q01DX009 (ip), vehicle: Klucel (hydroxypropylcellulose) (HPC) 104 % of control | [7] 103 % of control and 114 % of control | dose: 400.0 mg/kg/injection, schedule: Q01DX009 (ip), vehicle: Klucel (hydroxypropylcellulose) (HPC) 90 % of control | [8] 95 % of control and 107 % of control

CCCCC(CCCC)NCCO
inactive: dose: 75.0 mg/kg/injection, schedule: Q01DX001 (ip), vehicle: carboxymethylcellulose (CMC) 98 % of control | dose: 150.0 mg/kg/injection, schedule: Q01DX001 (ip), vehicle: carboxymethylcellulose (CMC) 96 % of control

CCOC(=O)c1ccc(N2C(=O)CC(Sc3ccccc3N)C2=O)cc1 (configuration not stated)
inactive: dose: 100.0 mg/kg/injection, schedule: Q01DX005 (ip), vehicle: Klucel (hydroxypropylcellulose) (HPC) 97 % of control | [6] 103 % of control | dose: 200.0 mg/kg/injection, schedule: Q01DX005 (ip), vehicle: Klucel (hydroxypropylcellulose) (HPC) 102 % of control | [7] 103 % of control | dose: 400.0 mg/kg/injection, schedule: Q01DX005 (ip), vehicle: Klucel (hydroxypropylcellulose) (HPC) 91 % of control | [8] 113 % of control

Cc1ccc(C(=O)C=Nc2ccc(S(N)(=O)=O)cc2)cc1
inactive: dose: 12.5 mg/kg/injection, schedule: Q04DX002 (ip), vehicle: Klucel (hydroxypropylcellulose) (HPC) 94 % of control | dose: 25.0 mg/kg/injection, schedule: Q04DX002 (ip), vehicle: Klucel (hydroxypropylcellulose) (HPC) 115 % of control | dose: 50.0 mg/kg/injection, schedule: Q04DX002 (ip), vehicle: Klucel (hydroxypropylcellulose) (HPC) 97 % of control

Cc1cc([N+](=O)[O-])c2ccccc2c1N(CC(=O)O)S(=O)(=O)c1ccccc1
inactive: [1] 93 % of control | dose: 100.0 mg/kg/injection, schedule: Q04DX003 (ip), vehicle: saline with Tween-80 90 % of control | [2] 99 % of control | [18] 97 % of control | [3] 104 % of control | [19] 89 % of control

CCCCCCCCCCCCCCCC(=O)N(CCCCN(C)C)CCCCN(C)C
inactive: dose: 2.0 mg/kg/injection, schedule: Q01DX009 (ip), vehicle: carboxymethylcellulose (CMC) 97 % of control | dose: 4.0 mg/kg/injection, schedule: Q01DX009 (ip), vehicle: carboxymethylcellulose (CMC) 98 % of control | dose: 6.0 mg/kg/injection, schedule: Q01DX009 (ip), vehicle: carboxymethylcellulose (CMC) 97 % of control

C[n+]1ccc(C=O)cc1
inactive: dose: 50.0 mg/kg/injection, schedule: Q01DX001 (ip), vehicle: saline 102 % of control | [14] 104 % of control and 109 % of control | dose: 50.0 mg/kg/injection, schedule: Q04DX003 (ip), vehicle: saline 103 % of control | [4] 105 % of control | dose: 100.0 mg/kg/injection, schedule: Q01DX009 (ip), vehicle: saline 102 % of control and 117 % of control | [9] 94 % of control and 107 % of control | [12] 101 % of control | [5] 105 % of control | dose: 200.0 mg/kg/injection, schedule: Q01DX009 (ip), vehicle: saline 106 % of control and 120 % of control | [10] 102 % of control and 104 % of control | [13] 94 % of control | [11] 98 % of control and 100 % of control

CC(C(=O)O)N(Cc1ccccc1)S(C)(=O)=O (configuration not stated)
inactive: [15] 97 % of control | dose: 100.0 mg/kg/injection, schedule: Q04DX003 (ip), vehicle: other 94 % of control | [16] 106 % of control | dose: 200.0 mg/kg/injection, schedule: Q04DX003 (ip), vehicle: other 102 % of control | [17] 108 % of control | dose: 400.0 mg/kg/injection, schedule: Q04DX003 (ip), vehicle: other 101 % of control

CCOC(=O)N/N=C/c1ccccc1OC
inactive: dose: 75.0 mg/kg/injection, schedule: Q01DX001 (ip), vehicle: saline 90 % of control | dose: 150.0 mg/kg/injection, schedule: Q01DX001 (ip), vehicle: saline 90 % of control | dose: 300.0 mg/kg/injection, schedule: Q01DX001 (ip), vehicle: saline 96 % of control

Cc1ccc(C(N)=O)cn1
inactive: [1] 104 % of control | [2] 104 % of control | [18] 107 % of control | [3] 101 % of control | [19] 97 % of control

Cc1cc(SC#N)ccc1O
inactive: dose: 3.0 mg/kg/injection, schedule: Q01DX009 (ip), vehicle: saline with Tween-80 94 % of control | dose: 6.0 mg/kg/injection, schedule: Q01DX009 (ip), vehicle: saline with Tween-80 102 % of control | dose: 12.0 mg/kg/injection, schedule: Q01DX009 (ip), vehicle: saline with Tween-80 102 % of control | dose: 25.0 mg/kg/injection, schedule: Q01DX009 (ip), vehicle: saline with Tween-80 102 % of control | dose: 25.0 mg/kg/injection, schedule: Q04DX002 (ip), vehicle: other 93 % of control | dose: 50.0 mg/kg/injection, schedule: Q04DX002 (ip), vehicle: other 93 % of control | dose: 100.0 mg/kg/injection, schedule: Q04DX002 (ip), vehicle: other 97 % of control
